Data from paper PMC11579541, “In vitro, in vivo, and in silico approaches for evaluating the preclinical DMPK profiles of ammoxetine, a novel chiral serotonin and norepinephrine reuptake inhibitor” (Frontiers in Pharmacology, 2024).

Key:
Excretion study in rats = type: in vivo, SD rats; conditions: 20 mg/kg oral; for Bile Cumulative excretion rate / Bile Excretion rate: bile duct cannulated rats; for Feces Cumulative excretion rate / Feces Excretion rate / Urine Cumulative excretion rate / Urine Excretion rate: rats
Description: Five SD rats were pre-adapted in separate metabolic cages with access to water and a solid diet. They were then administered a single oral dose of 20 mg/kg of ammoxetine after a 12-h fasting period and free access to water. Feces and urine samples were collected at specific time intervals: 0–5 h, 5–12 h, 12–24 h, 24–48 h, and 48–72 h post-administration. The dried fecal weights and urine volumes were measured and recorded at each sampling period. The collected feces were ground, thoroughly mixed, and then homogenized in distilled water to create a 10% homogenate, which was used as the fecal sample. In parallel, after a 12-h fasting period with free access to water, five SD rats were anesthetized, and bile duct cannulation was performed to collect bile samples. Once recovered from anesthesia, these rats received a single oral dose of 20 mg/kg of ammoxetine via oral gavage. Bile was collected at the following time points: 0–5 h, 5–12 h, 12–24 h, 24–48 h, and 48–72 h post-dosing, and its volume was measured. All collected samples were stored at −30°C until further processing. For sample processing, 100 μL of feces homogenates, urine, or bile samples were taken and mixed with 100 μL of L-phencynonate (IS, 50 ng/mL) and 300 μL of methanol. After vortexing, the mixture was centrifuged at 13,800×g for 10 min. The resulting supernatants were analyzed using an LC-MS-MS method.

[1] = Stability of ammoxetine in rat plasma (method validation); type: in vitro ADME
Description: LC-MS-MS methods were developed and validated to accurately quantify ammoxetine in rat and beagle dog plasma, as well as in rat tissues, urine, feces, and bile. The methods involved direct protein precipitation using methanol, providing a straightforward and rapid sample preparation process with high extraction recovery rates (absolute recoveries >85% in all matrices). […] The precision and accuracy of the plasma methods were evaluated through intra-day and inter-day analyses, yielding satisfactory results. Additionally, stability tests conducted in rat and beagle dog plasma met the analytical requirements for determination. Furthermore, the majority of the analytes met the necessary criteria for matrix effects when quantifying ammoxetine in biological samples. The developed methods are well-suited for determining ammoxetine concentrations in rat and beagle dog biological samples, enabling in vivo studies of this compound. They provide specific and highly sensitive quantification, facilitating investigations into the drug’s behavior in vivo. Detailed results regarding the establishment and validation of these analytical methods can be found in Supplementary Data Sheet 2.

CNCC[C@H](Oc1cccc2c1OCO2)c1cccs1 [ammoxetine]
Bile Cumulative excretion rate (Excretion study in rats; 0–5 h): 0.089 ± 0.058%
Bile Excretion rate (Excretion study in rats; 0–5 h): 0.089 ± 0.058%
Bile Cumulative excretion rate (Excretion study in rats; 5–12 h): 0.271 ± 0.257%
Bile Excretion rate (Excretion study in rats; 5–12 h): 0.182 ± 0.212%
Bile Cumulative excretion rate (Excretion study in rats; 12–24 h): 0.420 ± 0.384%
Bile Excretion rate (Excretion study in rats; 12–24 h): 0.149 ± 0.146%
Bile Cumulative excretion rate (Excretion study in rats; 24–48 h): 0.420 ± 0.384%
Bile Excretion rate (Excretion study in rats; 48–72 h): 0.016 ± 0.016%
Bile Cumulative excretion rate (Excretion study in rats; 48–72 h (at 72 h)): 0.436 ± 0.400%
Feces Cumulative excretion rate (Excretion study in rats; 0–5 h): 0.010 ± 0.008%
Feces Excretion rate (Excretion study in rats; 0–5 h): 0.010 ± 0.008%
Urine Cumulative excretion rate (Excretion study in rats; 0–5 h): 0.116 ± 0.034%
Urine Excretion rate (Excretion study in rats; 0–5 h): 0.116 ± 0.034%
Feces Cumulative excretion rate (Excretion study in rats; 5–12 h): 0.216 ± 0.060%
Feces Excretion rate (Excretion study in rats; 5–12 h): 0.206 ± 0.056%
Urine Cumulative excretion rate (Excretion study in rats; 5–12 h): 0.223 ± 0.069%
Urine Excretion rate (Excretion study in rats; 5–12 h): 0.107 ± 0.048%
Feces Cumulative excretion rate (Excretion study in rats; 12–24 h): 0.361 ± 0.168%
Feces Excretion rate (Excretion study in rats; 12–24 h): 0.145 ± 0.126%
Urine Cumulative excretion rate (Excretion study in rats; 12–24 h): 0.273 ± 0.124%
Urine Excretion rate (Excretion study in rats; 12–24 h): 0.050 ± 0.057%
Feces Cumulative excretion rate (Excretion study in rats; 24–48 h): 0.380 ± 0.180%
Feces Excretion rate (Excretion study in rats; 24–48 h): 0.019 ± 0.016%
Urine Cumulative excretion rate (Excretion study in rats; 24–48 h): 0.287 ± 0.134%
Urine Excretion rate (Excretion study in rats; 24–48 h): 0.014 ± 0.010%
Feces Excretion rate (Excretion study in rats; 48–72 h): 0.002 ± 0.003%
Urine Excretion rate (Excretion study in rats; 48–72 h): 0.005 ± 0.003%
Feces Cumulative excretion rate (Excretion study in rats; 48–72 h (at 72 h)): 0.382 ± 0.180%
Urine Cumulative excretion rate (Excretion study in rats; 48–72 h (at 72 h)): 0.292 ± 0.137%
Stability in rat plasma, Measured (%) ([1]; 5 ng/mL, -30℃ for 15d): 106.00±2.00%
Stability in rat plasma, Measured (%) ([1]; 5 ng/mL, in auto-sampler for 24h): 114.00±10.00%
Stability in rat plasma, Measured (%) ([1]; 5 ng/mL, room temperature for 4h): 94.00±6.00%
Stability in rat plasma, Measured (%) ([1]; 100 ng/mL, -30℃ for 15d): 105.90±8.30%
Stability in rat plasma, Measured (%) ([1]; 100 ng/mL, in auto-sampler for 24h): 111.20±5.90%
Stability in rat plasma, Measured (%) ([1]; 100 ng/mL, room temperature for 4h): 108.90±7.40%
Stability in rat plasma, Measured (%) ([1]; 800 ng/mL, -30℃ for 15d): 111.74±2.73%
Stability in rat plasma, Measured (%) ([1]; 800 ng/mL, in auto-sampler for 24h): 106.49±0.78%
Stability in rat plasma, Measured (%) ([1]; 800 ng/mL, room temperature for 4h): 114.33±0.73%
